The inhibition is the change of the read-out against control, counted positive when it falls.

Structures are written as SMILES.

Assay [1] deals with platelet aggregation provoked by PAF (washed rabbit platelets). The experiment in a line: Anti-PAF activity (inhibition of PAF-provoked platelet aggregation in washed platelets, nephelometry). The assay is classed as cell-based. The following applies: Oryctolagus cuniculus, PAF 30 ng/ml, read-out: Inhibition rate PAF. On the procedure:
(a) Preparation of washed platelet suspension (hereinafter referred to as W.P.)
(§1) A blood sample was collected from a carotid artery of a male rabbit weighing 2.5 kg, while adding thereto one volume of a 3.13% sodium citrate solution per 9 volumes of blood as a […]. The resulting blood was centrifuged at 200 xg for 20 minutes to separate out platelet-rich plasma (hereinafter referred to as PRP). This PRP was centrifuged at 1,000 xg for 15 minutes to separate the platelets from the plasma. The deposited platelets were washed twice with a Tyrode solution (Tyrode-Ca^++), from which Ca^++ had been removed and to which 1% bovine serum albumin (BSA) had been added, such that 9×10^5 platelets per μl were finally suspended in the Tyrode solution.
(b) Preparation of specimens and PAF
Specimens were dissolved or suspended in a physiological saline. PAF was dissolved in a Tyrode solution containing 1% BSA. PAF synthesized from D-mannitol in accordance with a method disclosed by J. J. Godfroid et al was used (FEBS Letters 116, 161-164, 1980).
(c) Measurement of platelet aggregation
(§2) Platelet aggregation measurements were conducted according to nephelometry described by Born et al using a platelet aggregation meter manufactured by Schenko Co. Specimen solutions having various concentrations of test compounds and 0.25 ml of W.P. were subjected to preincubation at 37° C. for 4 minutes, and then PAF was added thereto to give a final PAF concentration of 30 ng/ml to provoke platelet aggregation. The transmittance of the W.P. before aggregation, that is, before the addition of the aggregation provoking agent, was rated as 0, and the transmittance of the Tyrode solution was rated as 100. After the addition of the PAF solution to the W.P., light transmittance increased as aggregation proceeded. The value of the light transmittance at the time when the aggregation had proceeded to a maximum was rated as the maximum aggregation (hereinafter referred to as MA) which was used as an index of the degree of aggregation.
(§3) The inhibition rate was calculated according to the following equation. The aggregation in a W.P.-containing physiological saline solution free of test compound, as a control, was rated as 0% aggregation inhibition. [formula] wherein M.A. Control: maximum aggregation after platelet aggregation in PAF was provoked, after the addition of physiological saline.
M.A. Sample: maximum aggregation after platelet aggregation in PAF was provoked, after the addition of the test compound.

The subject of assay [2] is platelet aggregation provoked by bovine thrombin (washed rabbit platelets). Briefly: Antithrombic activity (inhibition of thrombin-provoked platelet aggregation). The class given is cell-based. The following applies: Oryctolagus cuniculus, bovine thrombin 0.2 units/ml, read-out: Inhibition rate Thrombin (%). The method, then: as §1, §2, §3
(2) Antithrombic activity
The measurement of the antithrombic activity was conducted in the same manner as described above, except that bovine thrombin at a final concentration of 0.2 units/ml was used as the platelet aggregation provoking agent in place of PAF.

Consider `CC(C)=CCC/C(C)=C/CC/C(C)=C/CC/C(C)=C/C(=O)N(CCO)CCO`, for which the inhibition at 50 µM in assay [1] was 76.4%.
`CC(C)=CCC/C(C)=C/CCC(C)CC(=O)NCCO` (centres unmarked): in assay [1], the inhibition at 50 µM is 31.4%.
As for `CC(C)=CCC/C(C)=C/CC/C(C)=C/CC/C(C)=C/CC/C(C)=C/C(=O)NCCO`, the inhibition at 50 µM in assay [1] is 22.7%.
For `CC(C)=CCC/C(C)=C/CC/C(C)=C/C(=O)NCCO`, in assay [1], the inhibition at 50 µM worked out at 18.7%.
For `CC(C)=CCC/C(C)=C/CC/C(C)=C/CC/C(C)=C/C(=O)N1CCCC(O)C1` (centres unmarked), the values for the inhibition at 50 µM in assay [1] and in assay [2] were 27.4% and 19.2%, respectively.
Take `CC(C)=CCC/C(C)=C/CC/C(C)=C/CC/C(C)=C/C(=O)N1CCCCC1CO` (centres unmarked): the inhibition at 50 µM in assay [1] came out at 34.4%; in assay [2], 27.4%.
The matching figures for `CCN1CCCC(NC(=O)/C=C(\C)CC/C=C(\C)CC/C=C(\C)CCC=C(C)C)C1` (centres unmarked): 80.3% and 24.2%.
Turning to `CC(C)CCCC(C)Cc1ccc(C(=O)NCCO)cc1` (centres unmarked), in assay [1], the inhibition at 20 µM turned out to be 57.8%.
The same measure, in the same setting: for `CC(C)CCCC(C)Cc1ccc(C(=O)N(CCN(C)C)CCN(C)C)cc1` (centres unmarked) the value was 59.4%.
For the molecule `CC(C)CCCC(C)CCCc1ccc(C(C)CC(=O)N(CCN(C)C)CCN(C)C)cc1` (centres unmarked), in assay [1], the inhibition at 20 µM came to 57.8% and the inhibition at 50 µM stood at 82.6%.
Take `CC(=CC(=O)NCCO)c1ccc(CCCC(C)CCCC(C)C)cc1` (centres unmarked): the inhibition at 20 µM in assay [1] is 55.9%.
Regarding `CC(=CC(=O)N(CCN(C)C)CCN(C)C)c1ccc(CCCC(C)CCCC(C)C)cc1` (centres unmarked), in assay [1], the inhibition at 20 µM turned out to be 63.2% and the inhibition at 50 µM amounted to 82.2%.
In the case of `CC(C)CCCC(C)CCCC(C)Cc1ccc(C(=O)N(CCN(C)C)CCN(C)C)c(F)c1` (centres unmarked), the inhibition at 20 µM in assay [1] came out at 64.9%.
Same read-out and setting: for `CC(C)CCCC(C)CCCC(C)Cc1ccc(C(=O)N(CCN(C)C)CCN(C)C)c2ccccc12` (centres unmarked) the value was 59.3%; for `CC(C)CCCC(C)CCCC(C)Cc1cccc2c(C(=O)N(CCN(C)C)CCN(C)C)cccc12` (centres unmarked), 58.3%.
Still for that read-out and setting: for `CC(C)CCCC(C)CCCC(C)Cc1ccc(C(=O)N(CCN(C)C)CCN(C)C)c2c1CCCC2` (centres unmarked) the value was 50.5%.
The same measure, in the same setting: for `CC(C)=CCC/C(C)=C/CC/C(C)=C/CC/C(C)=C/CNC(=O)CN(C)C` the value was 60.4%; for `CC(C)=CCC/C(C)=C/CC/C(C)=C/CC/C(C)=C/CNC(=O)CCN`, 59.1%; for `CC(C)=CCC/C(C)=C/CC/C(C)=C/CC/C(C)=C/CNCCN(C)C`, 37.1%.
On to `CC(C)=CCC/C(C)=C/CC/C(C)=C/CC/C(C)=C/C(=O)NCCN(C)C`, for which the inhibition at 20 µM in assay [1] worked out at 74.3%.
Turning to `CC(C)=CCC/C(C)=C/CC/C(C)=C/CC/C(C)=C/C(=O)N(CCN(C)C)CCN(C)C`, the inhibition at 20 µM in assay [1] was 88.7%; in assay [2], 76.4%.
`CC(C)=CCC/C(C)=C/CC/C(C)=C/c1ccc(C(=O)NCCN(C)C)cc1`: the inhibition at 20 µM is 73.5% in assay [1] and 34.2% in assay [2].
As for `CC(C)CCCC(C)CCCC(C)Cc1ccc(C(=O)NCCN(C)C)cc1` (centres unmarked), the inhibition at 20 µM amounted to 80.6% in assay [1] and 70.3% in assay [2].
In the case of `CC(C)=CCC/C(C)=C/CC/C(C)=C/c1ccc(C(=O)N(CCN(C)C)CCN(C)C)cc1`, the results for the inhibition at 20 µM in assay [1] and in assay [2] were 93.6% and 70.6%, respectively.
For the molecule `CC(C)CCCC(C)CCCC(C)Cc1ccc(C(=O)N(CCN(C)C)CCN(C)C)cc1` (centres unmarked), the inhibition at 20 µM came to 74.7% in assay [1] and 78.8% in assay [2].

Source of the values: patent US4742058A, “Polyprenyl compound, process for the production thereof and drug containing the same” (Eisai Co., Ltd., priority 1982, dated 1988).
